# Tests used:
# [1] = test system: NA of influenza A (H1N1) virus isolate; type: biochemical; details: read-out: Susceptibility to oseltamivir (mean IC50 ± SD)
# [2] = test system: NA of influenza A (H3N2) virus isolates; type: biochemical; details: read-out: Susceptibility to oseltamivir (mean IC50 ± SD)
# [3] = test system: matrix M2 protein; design: species or system influenza A (H3N2) virus
SMILES,IC50 [1] [nM],IC50 [2] [nM],Susceptibility to adamantanes (S31N mutation in M2 protein) [3]
NC12CC3CC(CC(C3)C1)C2 [amantadine],,,resistance
